Test results from patent publication US11713335B2, “Aminocoumarin compounds and methods of their use” (President and Fellows of Harvard College, priority 2018, dated 2023).
≈ marks a conversion by molar mass, not a printed value. Where two headings read alike, the source gives them in different places.

How the values were obtained:
E. coli MC4100 = test: Minimal inhibitory concentration, E. coli MC4100; format: cell-based; conditions: 16 hour minimal inhibitory concentration at 37° C., read-out: MIC (μM) E. coli MC4100 ara+
How it was run: (§1)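 Broth microdilution, 2-fold series from DMSO stock; inoculum = saturated overnight culture (LB; TSA for S. aureus) diluted 1:100 then 1:100. 37 °C, 16 h, no shaking. OD600 read-out; MIC = lowest conc. inhibiting growth (µM).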

K. pneumoniae 700721 = test: Minimal inhibitory concentration, K. pneumoniae 700721; format: cell-based; conditions: 16 hour minimal inhibitory concentration at 37° C., read-out: MIC (μM) K. pneumoniae 700721
How it was run: as §1

S. aureus MW2 = test: Minimal inhibitory concentration, S. aureus MW2; format: cell-based; conditions: 16 hour minimal inhibitory concentration at 37° C., read-out: MIC (μM) S. aureus MW2 (MRSA)
How it was run: as §1

WT E. coli = test: Minimal inhibitory concentration in wild-type E. coli; format: cell-based, Escherichia coli; conditions: wild-type E. coli, 37° C., 16 hours, read-out: MIC (μM) in WT E. coli
Procedure: General Procedure for Determination of Minimal Inhibitory Concentrations
Overnight cultures (5 mL) of bacterial strains were grown in LB media or TSA media (for S. aureus) at 37° C. and with shaking at 220 rpm until saturation. The overnight culture was diluted serially 1:100 (50 μL in 5 mL sterile media) and then 1:100 (250 μL in 25 mL sterile media). The 25 mL of diluted culture was then dispensed to a sterile 96 well plate (Corning #3370). 198 μL of culture were dispensed into row A and 100 μL of this culture were dispensed into rows B-H. Aminocoumarin compound (DMSO stock) were added to the first row and then the row was mixed by pipetting. 100 μL of culture from row A were transferred to row B and the serial dilution continued until the final 100 μL from row H were discarded. The plate was incubated without shaking in a 37° C. for 16 hours and then read by visible light spectrophotometer (Molecular Devices) at 600 nm. The minimal inhibitory concentration (MIC) was determined as the lowest concentration of compound concentration that inhibited the growth of bacteria.

E. cloacae 13047 = test: Minimal inhibitory concentration, E. cloacae 13047; format: cell-based; conditions: 16 hour minimal inhibitory concentration at 37° C., read-out: MIC (μM) E. cloacae 13047
How it was run: as §1

E. coli 25922 = test: Minimal inhibitory concentration, E. coli 25922; format: cell-based; conditions: 16 hour minimal inhibitory concentration at 37° C., read-out: MIC (μM) E. coli 25922
How it was run: as §1

A. baumannii 19606 = test: Minimal inhibitory concentration, A. baumannii 19606; format: cell-based; conditions: 16 hour minimal inhibitory concentration at 37° C., read-out: MIC (μM) A. baumannii 19606
How it was run: as §1

S. aureus RN4220 = test: Minimal inhibitory concentration, S. aureus RN4220; format: cell-based; conditions: 16 hour minimal inhibitory concentration at 37° C., read-out: MIC (μM) S. aureus RN4220
How it was run: as §1

[1] = Staphylococcus aureus, MRSA, 16 h
[2] = Acinetobacter baumannii, 19606, 16 h
[3] = Staphylococcus aureus, RN4220, 16 h

| Structure (SMILES) | MIC (E. coli MC4100; Escherichia coli, MC4100, 16 h) [µM] | MIC (K. pneumoniae 700721; Klebsiella pneumoniae, 700721) [µM] | MIC (S. aureus MW2; [1]) [µM] | MIC (WT E. coli; Escherichia coli) [µM] | MIC (E. cloacae 13047; Enterobacter cloacae, 13047) [µM] | MIC (E. coli 25922; Escherichia coli, 25922, 16 h) [µM] | MIC (A. baumannii 19606; [2]) [µM] | MIC (S. aureus RN4220; [3]) [µM] | MIC (E. coli MC4100) [µM] | MIC (K. pneumoniae 700721) [µM] | MIC (S. aureus MW2) [µM] | MIC (WT E. coli) [µM] | MIC (E. cloacae 13047) [µM] | MIC (E. coli 25922) [µM] | MIC (A. baumannii 19606) [µM] | MIC (S. aureus RN4220) [µM] |
| --- | --- | --- | --- | --- | --- | --- | --- | --- | --- | --- | --- | --- | --- | --- | --- | --- |
| CO[C@@H]1[C@@H](OC(N)=O)[C@@H](O)[C@H](Oc2ccc3c(O)c(NC(=O)c4cccc(-c5ccccc5)c4)c(=O)oc3c2C)OC1(C)C [Compound 1] | 26 (≈ 15.7 µg/mL) | > 100 | 5 (≈ 3.02 µg/mL) | 26 (≈ 15.7 µg/mL) | > 100 | 41 (≈ 24.8 µg/mL) | > 50 | 5 (≈ 3.02 µg/mL) | – | – | – | – | – | – | – | – |
| CO[C@@H]1[C@@H](OC(N)=O)[C@@H](O)[C@H](Oc2ccc3c(O)c(NC(=O)c4cccc(-c5ccccc5F)c4)c(=O)oc3c2C)OC1(C)C [Compound 37] | 59 (≈ 36.7 µg/mL) | > 100 | 10 (≈ 6.23 µg/mL) | 59 (≈ 36.7 µg/mL) | > 100 | 80 (≈ 49.8 µg/mL) | > 50 | 10 (≈ 6.23 µg/mL) | – | – | – | – | – | – | – | – |
| CO[C@@H]1[C@@H](OC(N)=O)[C@@H](O)[C@H](Oc2ccc3c(O)c(NC(=O)c4cc(-c5ccccc5)c(OCc5ccccc5)cc4OCc4ccccc4)c(=O)oc3c2C)OC1(C)C [Compound 66] | – | – | – | – | – | – | – | – | >200 | >100 | >100 | >300 | >100 | >200 | >50 | >100 |
| COC1C(OC(N)=O)C(O)C(Oc2ccc3c(O)c(NC(=O)C4CCCC(C5CCCCC5)C4)c(=O)oc3c2C)OC1(C)C (mixture of isomers) [Compound 63] | – | – | – | – | – | – | – | – | >200 | >100 | 5 | 300 | >100 | >200 | >50 | 10 |
| CO[C@@H]1[C@@H](OC(N)=O)[C@@H](O)[C@H](Oc2ccc3c(O)c(NC(=O)c4cc(-c5ccccc5)ccc4O)c(=O)oc3c2C)OC1(C)C [Compound 87] | – | – | – | – | – | – | – | – | 18 (≈ 11.2 µg/mL) | 40 (≈ 24.8 µg/mL) | 20 (≈ 12.4 µg/mL) | 18 (≈ 11.2 µg/mL) | >100 | 20 (≈ 12.4 µg/mL) | >50 | 20 (≈ 12.4 µg/mL) |
| CO[C@@H]1[C@@H](OC(N)=O)[C@@H](O)[C@H](Oc2ccc3c(O)c(NC(=O)c4cccc5ccn(C)c45)c(=O)oc3c2C)OC1(C)C [Compound 74] | – | – | – | – | – | – | – | – | >200 | >100 | >100 | >300 | >100 | >200 | >50 | >100 |
| CO[C@@H]1[C@@H](OC(N)=O)[C@@H](O)[C@H](Oc2ccc3c(O)c(NC(=O)c4ccc5ccn(C)c5c4)c(=O)oc3c2C)OC1(C)C.Cl [Compound 71] | – | – | – | – | – | – | – | – | >200 | >100 | 41 | >300 | >100 | >200 | >50 | 81 |
| CO[C@@H]1[C@@H](OC(N)=O)[C@@H](O)[C@H](Oc2ccc3c(O)c(NC(=O)c4cccc(N5CCN(C)CC5)c4)c(=O)oc3c2C)OC1(C)C [Compound 52] | > 200 | > 100 | > 100 | > 300 | > 100 | 160 (≈ 100 µg/mL) | > 50 | > 100 | – | – | – | – | – | – | – | – |
| CO[C@@H]1[C@@H](OC(N)=O)[C@@H](O)[C@H](Oc2ccc3c(O)c(NC(=O)c4cccc(-c5cccc(C(C)C)c5)c4)c(=O)oc3c2C)OC1(C)C [Compound 61] | – | – | – | – | – | – | – | – | 59 (≈ 38.2 µg/mL) | >100 | 0.19 (≈ 0.123 µg/mL) | 59 (≈ 38.2 µg/mL) | >100 | 77 (≈ 49.8 µg/mL) | 10 (≈ 6.47 µg/mL) | 0.39 (≈ 0.252 µg/mL) |
| CO[C@@H]1[C@@H](OC(N)=O)[C@@H](O)[C@H](Oc2ccc3c(O)c(NC(=O)c4cccc(-c5ccc6ccccc6c5)c4)c(=O)oc3c2C)OC1(C)C [Compound 39] | – | – | – | – | – | – | – | – | >200 | >100 | 0.1 (≈ 0.0655 µg/mL) | >300 | >100 | 153 (≈ 100 µg/mL) | 5 (≈ 3.27 µg/mL) | 0.19 (≈ 0.124 µg/mL) |
